US9296745B2, “Diacylglycerol acyltransferase 2 inhibitors” (Pfizer Inc., priority 2012, dated 2016)

Target: Human DGAT2 (hDGAT2) (Homo sapiens (Human), UniProt Q96PD7)
Assay: In vitro DGAT2 assay, IC50 determination with hDGAT2 membrane fraction
Assay type: biochemical
Conditions: geometric mean; background for complete inhibition of DGAT2 obtained with 50 μM (1R,2R)-2-({3′-Fluoro-4′-[(6-fluoro-1,3-benzothiazol-2-yl)amino]-1,1′-biphenyl-4-yl}carbonyl)cyclopentanecarboxylic acid; read-out: DGAT2 IC50
Protocol: Recombinant baculovirus for the FLAG-tagged hDGAT2 was generated in SF9 insect cells using Bac-to-Bac baculovirus expression system (Invitrogen) according to the manufacturer's protocol. For the expression of hDGAT2, SF9 cells (20 L) grown in Sf900II media were infected with hDGAT2 baculovirus at a multiplicity of infection of 1 in a Wave Bioreactor System 20/50P wave bag (GE Healthcare). After 40 hours of infection, the cells were then harvested by centrifugation at 5,000×g. The cell pellets were washed by resuspending in phosphate buffered saline (PBS) and collected by centrifugation at 5,000×g. The cell paste was flash frozen in liquid N2 and stored at −80° C. until needed. All operations below were at 4° C. unless otherwise noted. The cells were resuspended in lysis buffer (50 mM Tris-HCl, pH 8.0, 250 mM sucrose) including 1 mM ethylenediaminetetraacetic acid (EDTA) and the complete protease inhibitor cocktail (Roche Diagnostics) at a ratio of 3 ml buffer per 1 g cell paste. The cells were lysed by dounce homogenizer. The cell debris was removed by centrifugation at 1,000×g for 20 min, and the supernatant was centrifuged at 100,000×g for 1 hour. The resulting pellet was rinsed three times by filling ultracentrifuge tubes to the top with ice cold PBS before decanting. The washed pellet was resuspended with gentle stirring for 1 hour in lysis buffer containing 8 mM 3-[(3-cholamidopropyl)dimethylammonio]-1-propanesulfonate (CHAPS) at a ratio of 1 mL buffer per 1 g of original cell paste and centrifuged again at 100,000×g for 1 hour. The resulting supernatant (hDGAT2 membrane fraction) was aliquotted, flash frozen in liquid N2, and stored at −80° C. until use.
To 1 μL of compounds dissolved in 100% DMSO and spotted at the bottom of each well, 5 μL of 0.04% bovine serum albumin (BSA) (fatty acid free, Sigma Aldrich) was added and the mixture was incubated at room temperature for 20 minutes. To this mixture, 10 μL of hDGAT2 membrane fraction (0.01 mg/mL) diluted in 100 mM Hepes-NaOH, pH 7.4, 20 mM MgCl2 containing 200 nM methyl arachidonyl fluorophosphonate (Cayman Chemical; dried from ethyl acetate stock solution under argon gas and dissolved in DMSO as 5 mM stock) was added. […] The reaction mixtures were incubated at room temperature for 40 min and the reactions were stopped by addition of 5 μL of 1% H3PO4. After the addition of 45 μL MicroScint-E (Perkin-Elmer), plates were sealed with Top Seal-A covers (Perkin-Elmer) and phase partitioning of substrates and products was achieved using a HT-91100 microplate orbital shaker (Big Bear Automation, Santa Clara, Calif.). Plates were centrifuged at 2,000×g for 1 min in an Allegra 6R Centrifuge (Beckman Coulter) and then were sealed again with fresh covers before reading in a 1450 Microbeta Wallac Trilux Scintillation Counter (Perkin Elmer). DGAT2 activity was measured by quantifying the generated product [^14C]tridecanoylglycerol in the upper organic phase.
Inhibitors were tested at eleven different concentrations to generate IC50 values for each compound. […] Results are reported as geometric mean IC50 values.

Human DGAT2 (hDGAT2), sequence (Q96PD7 whole entry): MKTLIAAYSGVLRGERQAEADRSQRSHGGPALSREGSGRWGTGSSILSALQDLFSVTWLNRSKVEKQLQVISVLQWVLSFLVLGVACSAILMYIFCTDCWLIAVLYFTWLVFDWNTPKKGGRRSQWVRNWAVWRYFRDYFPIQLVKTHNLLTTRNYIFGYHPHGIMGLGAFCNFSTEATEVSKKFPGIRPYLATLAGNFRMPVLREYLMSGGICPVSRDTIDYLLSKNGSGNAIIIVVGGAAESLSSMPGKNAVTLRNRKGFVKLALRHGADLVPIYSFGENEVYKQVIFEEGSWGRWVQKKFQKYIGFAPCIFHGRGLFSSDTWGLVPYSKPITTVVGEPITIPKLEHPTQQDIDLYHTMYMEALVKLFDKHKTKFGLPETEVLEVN

Structure (SMILES)	IC50
O=C([C@@H]1CCCN(c2ccc3nc(-c4ccnc(N5CCOCC5)n4)[nH]c3n2)C1)N1CCCC1 [Example 25, (R)-(1-(2-(2-Morpholinopyrimidin-4-yl)-3H-imidazo[4,5-b]pyridin-5-yl)piperidin-3-yl)(pyrrolidin-1-yl)methanone]	297 nM
O=C1COc2ccc(-c3nc4ccc(N5CCC[C@@H](C(=O)N6CCCC6)C5)nc4[nH]3)cc2N1 [Example 27, (R)-6-(5-(3-(Pyrrolidine-1-carbonyl)piperidin-1-yl)-3H-imidazo[4,5-b]pyridin-2-yl)-2H-benzo[b][1,4]oxazin-3(4H)-one]	1390 nM
O=C([C@@H]1CCCN(c2ccc3nc(C4CC4)[nH]c3n2)C1)N1CCCC1 [Example 29, (R)-(1-(2-Cyclopropyl-3H-imidazo[4,5-b]pyridin-5-yl)piperidin-3-yl)(pyrrolidin-1-yl)methanone]	4370 nM
CS(=O)(=O)Nc1cccc(-c2nc3ccc(N4CCC[C@@H](C(=O)N5CCCC5)C4)nc3[nH]2)c1 [Example 30, (R)-N-(3-(5-(3-(Pyrrolidine-1-carbonyl)piperidin-1-yl)-3H-imidazo[4,5-b]pyridin-2-yl)phenyl)methanesulfonamide]	1400 nM
CCc1cc(-c2nc3ccc(N4CCC[C@@H](C(=O)N5CCCC5)C4)nc3[nH]2)no1 [Example 32, (R)-(1-(2-(5-Ethylisoxazol-3-yl)-3H-imidazo[4,5-b]pyridin-5-yl)piperidin-3-yl)(pyrrolidin-1-yl)methanone]	239 nM
Cc1cncc(-c2nc3ccc(N4CCC[C@@H](C(=O)N5CCCC5)C4)nc3[nH]2)c1 [Example 33, (R)-(1-(2-(5-Methylpyridin-3-yl)-3H-imidazo[4,5-b]pyridin-5-yl)piperidin-3-yl)(pyrrolidin-1-yl)methanone]	97 nM
O=C([C@@H]1CCCN(c2ccc3nc(C4(c5ccccc5)CC4)[nH]c3n2)C1)N1CCCC1 [Example 51, (R)-(1-(2-(1-Phenylcyclopropyl)-3H-imidazo[4,5-b]pyridin-5-yl)piperidin-3-yl)(pyrrolidin-1-yl)methanone]	69.7 nM
O=C([C@@H]1CCCN(c2ccc3nc(C4CCC4)[nH]c3n2)C1)N1CCCC1 [Example 53, (R)-(1-(2-Cyclobutyl-3H-imidazo[4,5-b]pyridin-5-yl)piperidin-3-yl)(pyrrolidin-1-yl)methanone]	2530 nM
Cc1cccc(=O)n1Cc1nc2ccc(N3CCC[C@@H](C(=O)N4CCCC4)C3)nc2[nH]1 [Example 57, (R)-6-Methyl-1-((5-(3-(pyrrolidine-1-carbonyl)piperidin-1-yl)-3H-imidazo[4,5-b]pyridin-2-yl)methyl)pyridin-2(1H)-one]	702 nM
c1ccc(C2CCCN(c3ccc4nc(-c5ccnc(C6CC6)n5)[nH]c4n3)C2)nc1 (stereo not shown) [Example 59, 2-(2-Cyclopropylpyrimidin-4-yl)-5-(3-(pyridin-2-yl)piperidin-1-yl)-3H-imidazo[4,5-b]pyridine]	858 nM
CN(C)C(=O)[C@@H]1CCCN(c2ccc3nc(-c4cccc(OC(F)F)c4)[nH]c3n2)C1 [Example 60, (R)-1-(2-(3-(Difluoromethoxy)phenyl)-3H-imidazo[4,5-b]pyridin-5-yl)-N,N-dimethylpiperidine-3-carboxamide]	892 nM
O=C(C1CCCC1)N1CCCC(c2nc3ccc(N4CCC[C@@H](C(=O)N5CCCC5)C4)nc3[nH]2)C1 (stereo partly shown) [Example 62]	241 nM
O=C([C@@H]1CCCN(c2ccc3nc(-c4ccnc(C5CC5)n4)[nH]c3n2)C1)N1CC[C@H](F)C1 [Example 65, ((R)-1-(2-(2-Cyclopropylpyrimidin-4-yl)-3H-imidazo[4,5-b]pyridin-5-yl)piperidin-3-yl)((S)-3-fluoropyrrolidin-1-yl)methanone]	59.3 nM
O=C([C@@H]1CCCN(c2ccc3nc(-c4ccnc(C5CC5)n4)[nH]c3n2)C1)N1CCC[C@@H]1CO [Example 66, ((R)-1-(2-(2-Cyclopropylpyrimidin-4-yl)-3H-imidazo[4,5-b]pyridin-5-yl)piperidin-3-yl)((R)-2-(hydroxymethyl)pyrrolidin-1-yl)methanone]	1050 nM

Continued by falling IC50, values first:

IC50	Structure (SMILES)
58.2 nM	C[C@@H]1CCCN1C(=O)[C@@H]1CCCN(c2ccc3nc(-c4ccnc(C5CC5)n4)[nH]c3n2)C1 [Example 67, ((R)-1-(2-(2-Cyclopropylpyrimidin-4-yl)-3H-imidazo[4,5-b]pyridin-5-yl)piperidin-3-yl)((R)-2-methylpyrrolidin-1-yl)methanone]
36.5 nM	Cc1cccc(-c2nc3ccc(N4CCC[C@@H](C(=O)N5CCCC5)C4)nc3[nH]2)n1 [Example 44, (R)-(1-(2-(6-Methylpyridin-2-yl)-3H-imidazo[4,5-b]pyridin-5-yl)piperidin-3-yl)(pyrrolidin-1-yl)methanone]
34.5 nM	N#Cc1cccc(-c2nc3ccc(N4CCC[C@@H](C(=O)N5CCCC5)C4)nc3[nH]2)c1 [Example 47, (R)-3-(5-(3-(Pyrrolidine-1-carbonyl)piperidin-1-yl)-3H-imidazo[4,5-b]pyridin-2-yl)benzonitrile]
24.8 nM	O=C([C@@H]1CCCN(c2ccc3nc(-c4ccc(OC(F)(F)F)cc4)[nH]c3n2)C1)N1CCCC1 [Example 34, (R)-Pyrrolidin-1-yl(1-(2-(4-(trifluoromethoxy)phenyl)-3H-imidazo[4,5-b]pyridin-5-yl)piperidin-3-yl)methanone]
21.2 nM	O=C([C@@H]1CCCN(c2ccc3nc(-c4cccc(F)c4)[nH]c3n2)C1)N1CCCC1 [Example 35, (R)-(1-(2-(3-Fluorophenyl)-3H-imidazo[4,5-b]pyridin-5-yl)piperidin-3-yl)(pyrrolidin-1-yl)methanone]
20.7 nM	COc1cccc(-c2nc3ccc(N4CCC[C@@H](C(=O)N5CCCC5)C4)nc3[nH]2)c1 [Example 36, (R)-(1-(2-(3-Methoxyphenyl)-3H-imidazo[4,5-b]pyridin-5-yl)piperidin-3-yl)(pyrrolidin-1-yl)methanone]
12.6 nM	COc1cccc(-c2nc3ccc(N4CCC[C@@H](C(=O)N5CCCC5)C4)nc3[nH]2)n1 [Example 37, (R)-(1-(2-(6-Methoxypyridin-2-yl)-3H-imidazo[4,5-b]pyridin-5-yl)piperidin-3-yl)(pyrrolidin-1-yl)methanone]
10.7 nM	O=C([C@@H]1CCCN(c2ccc3nc(COc4ccc(Cl)cc4)[nH]c3n2)C1)N1CCCC1 [Example 48]
7.81 nM	O=C([C@@H]1CCCN(c2ccc3nc(-c4cccc(N5CCCC5)n4)[nH]c3n2)C1)N1CCCC1 [Example 38, (R)-Pyrrolidin-1-yl(1-(2-(6-(pyrrolidin-1-yl)pyridin-2-yl)-3H-imidazo[4,5-b]pyridin-5-yl)piperidin-3-yl)methanone]
7.41 nM	O=C([C@@H]1CCCN(c2ccc3nc(-c4cccc(OC(F)F)c4)[nH]c3n2)C1)N1CCCC1 [Example 43, (R)-(1-(2-(3-(Difluoromethoxy)phenyl)-3H-imidazo[4,5-b]pyridin-5-yl)piperidin-3-yl)(pyrrolidin-1-yl)methanone]
6.85 nM	O=C([C@@H]1CCCN(c2ccc3nc(-c4coc(-c5ccccc5)n4)[nH]c3n2)C1)N1CCCC1 [Example 39, (R)-(1-(2-(2-Phenyloxazol-4-yl)-3H-imidazo[4,5-b]pyridin-5-yl)piperidin-3-yl)(pyrrolidin-1-yl)methanone]
6.47 nM	CCc1csc(-c2nc3ccc(N4CCC[C@@H](C(=O)N5CCCC5)C4)nc3[nH]2)n1 [Example 40, (R)-(1-(2-(4-Ethylthiazol-2-yl)-3H-imidazo[4,5-b]pyridin-5-yl)piperidin-3-yl)(pyrrolidin-1-yl)methanone]
4.56 nM	O=C([C@@H]1CCCN(c2ccc3nc(-c4cccc(Cl)c4)[nH]c3n2)C1)N1CCCC1 [Example 41, (R)-(1-(2-(3-Chlorophenyl)-3H-imidazo[4,5-b]pyridin-5-yl)piperidin-3-yl)(pyrrolidin-1-yl)methanone]
3.18 nM	CC(C)(C)c1csc(-c2nc3ccc(N4CCC[C@@H](C(=O)N5CCCC5)C4)nc3[nH]2)n1 [Example 42, (R)-(1-(2-(4-tert-Butylthiazol-2-yl)-3H-imidazo[4,5-b]pyridin-5-yl)piperidin-3-yl)(pyrrolidin-1-yl)methanone]
